The results in this text go back to the supplement of paper PMC8967900.
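Further: ALL cell lines in 384-well plates, five doses spanning 10,000-fold, each plate scaled between vehicle and 100 µmol/L benzalkonium chloride controls, sDSS an adapted area-under-curve metric.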

One test has as its system DND-41. The experiment in a line: selective drug sensitivity score (sDSS, relative to normal bone marrow) (sDSS (score)); higher = more potent and effective on the cell line relative to normal bone marrow cells. As to conditions: 72 h.
For `CCOC(=O)CCNc1cc(N2CCc3ccccc3CC2)nc(-c2ccccn2)n1` [GSK-J4] (top concentration 100000 nM), the “selective drug sensitivity score” value was -6.88.
Regarding `Cc1cc(Nc2cc(CN3CCOCC3)c3nc(C)c(Cc4ccc(Cl)cc4F)n3n2)n[nH]1` [Gandotinib] (top concentration 10000 nM), the “selective drug sensitivity score” value was found to be 7.28.
In the case of `NC(=O)NO` [Hydroxyurea] (top concentration 1000000 nM), the “selective drug sensitivity score” value was 1.16.
Still for that read-out and setting: the figure for `Cc1ccc(NC(=O)c2ccc(CN3CCN(C)CC3)cc2)cc1Nc1nccc(-c2cccnc2)n1` [Imatinib] (top concentration 10000 nM) is 0.26; for `CC(C)NC[C@@H](C(=O)N1CCN(c2ncnc3c2[C@H](C)C[C@H]3O)CC1)c1ccc(Cl)cc1` [Ipatasertib] (top concentration 10000 nM) it is 1.1; for `CCC(C)n1ncn(-c2ccc(N3CCN(c4ccc(OCC5COC(Cn6cncn6)(c6ccc(Cl)cc6Cl)O5)cc4)CC3)cc2)c1=O` (stereo not given) [Itraconazole] (top concentration 5000 nM) it is 6.98.
As for `Cc1sc2c(c1C)C(c1ccc(Cl)cc1)=N[C@@H](CC(=O)OC(C)(C)C)c1nnc(C)n1-2` [JQ1] (top concentration 10000 nM), the “selective drug sensitivity score” value amounted to 2.52.
Turning to `CCNC(=O)c1noc(-c2cc(C(C)C)c(O)cc2O)c1-c1ccc(CN2CCOCC2)cc1` [Luminespib] (top concentration 1000 nM), the “selective drug sensitivity score” value is -2.
Same read-out and setting: the figure for `O=C(c1cccc(Cl)c1F)N1CCN(Cc2cccc(Nc3nccs3)n2)CC1` [MK-8745] (top concentration 10000 nM) is 5.5.
The same measure, in the same setting: the figure for `Cc1ccc(NC(=O)c2ccc(CN3CCN(C)CC3)cc2)cc1Nc1nc(-c2cccnc2)cs1` [Masitinib] (top concentration 10000 nM) is -0.28; for `CCN(CC)CCCC(C)Nc1c2ccc(Cl)cc2nc2ccc(OC)cc12` (stereo not given) [Mepacrine] (top concentration 50000 nM) it is -5.1; for `COc1ccc(-c2ccc3ncc4c(c3c2)n(-c2ccc(N3CCNCC3)c(C(F)(F)F)c2)c(=O)n4C)cn1` [NVP-BGT226] (top concentration 1000 nM) it is 2.12.
Consider `COc1nc(N)nc2c1ncn2[C@@H]1O[C@H](CO)[C@@H](O)[C@@H]1O` [Nelarabine] (top concentration 10000 nM), for which the “selective drug sensitivity score” value stood at 8.98.
Same read-out and setting: for `Cc1cn(-c2cc(NC(=O)c3ccc(C)c(Nc4nccc(-c5cccnc5)n4)c3)cc(C(F)(F)F)c2)cn1` [Nilotinib] (top concentration 10000 nM) the value was 2.8; for `NC(=O)c1cccc2cn(-c3ccc(C4CCCNC4)cc3)nc12` (stereo not given) [Niraparib] (top concentration 10000 nM), 2.78; for `COc1ccc(C[C@H](NC(=O)[C@H](C)NC(=O)CN2CCOCC2)C(=O)N[C@@H](Cc2ccccc2)C(=O)[C@@]2(C)CO2)cc1` [ONX-0914] (top concentration 10000 nM), 11.7.
As for `CC(=O)c1cnc2ccc(-c3cc(Cl)c(O)c(Cl)c3)nc2c1N[C@H]1CC[C@H](CN(C)C)CC1` [OTS167] (top concentration 1000 nM), the “selective drug sensitivity score” value was -1.12.
The same measure, in the same setting: the figure for `COC(=O)C[C@](O)(CCCC(C)(C)O)C(=O)O[C@@H]1C(OC)=C[C@]23CCCN2CCc2cc4c(cc2[C@H]13)OCO4` [Omacetaxine] (top concentration 10000 nM) is -2.78.

Another test relates to HAL-01. The description is as above. As to conditions: 72 h.
For `CCOC(=O)CCNc1cc(N2CCc3ccccc3CC2)nc(-c2ccccn2)n1` [GSK-J4] (top concentration 100000 nM), the “selective drug sensitivity score” value came to 7.72.
In the case of `Cc1cc(Nc2cc(CN3CCOCC3)c3nc(C)c(Cc4ccc(Cl)cc4F)n3n2)n[nH]1` [Gandotinib] (top concentration 10000 nM), the “selective drug sensitivity score” value is 4.68.
For the compound `NC(=O)NO` [Hydroxyurea] (top concentration 1000000 nM), the “selective drug sensitivity score” value came to 5.26.
On to `Cc1ccc(NC(=O)c2ccc(CN3CCN(C)CC3)cc2)cc1Nc1nccc(-c2cccnc2)n1` [Imatinib] (top concentration 10000 nM), for which the “selective drug sensitivity score” value is -0.44.
`CC(C)NC[C@@H](C(=O)N1CCN(c2ncnc3c2[C@H](C)C[C@H]3O)CC1)c1ccc(Cl)cc1` [Ipatasertib] (top concentration 10000 nM): the “selective drug sensitivity score” value is 1.8.
Consider `CCC(C)n1ncn(-c2ccc(N3CCN(c4ccc(OCC5COC(Cn6cncn6)(c6ccc(Cl)cc6Cl)O5)cc4)CC3)cc2)c1=O` (stereo not given) [Itraconazole] (top concentration 5000 nM), for which the “selective drug sensitivity score” value amounted to 2.28.
For the compound `Cc1sc2c(c1C)C(c1ccc(Cl)cc1)=N[C@@H](CC(=O)OC(C)(C)C)c1nnc(C)n1-2` [JQ1] (top concentration 10000 nM), the “selective drug sensitivity score” value came to 6.12.
Still for that read-out and setting: for `CCNC(=O)c1noc(-c2cc(C(C)C)c(O)cc2O)c1-c1ccc(CN2CCOCC2)cc1` [Luminespib] (top concentration 1000 nM) the value was -3.7.
Turning to `O=C(c1cccc(Cl)c1F)N1CCN(Cc2cccc(Nc3nccs3)n2)CC1` [MK-8745] (top concentration 10000 nM), the “selective drug sensitivity score” value came to 7.
As to `Cc1ccc(NC(=O)c2ccc(CN3CCN(C)CC3)cc2)cc1Nc1nc(-c2cccnc2)cs1` [Masitinib] (top concentration 10000 nM), the “selective drug sensitivity score” value turned out to be 0.72.
Still for that read-out and setting: the figure for `CCN(CC)CCCC(C)Nc1c2ccc(Cl)cc2nc2ccc(OC)cc12` (stereo not given) [Mepacrine] (top concentration 50000 nM) is -3.5; for `COc1ccc(-c2ccc3ncc4c(c3c2)n(-c2ccc(N3CCNCC3)c(C(F)(F)F)c2)c(=O)n4C)cn1` [NVP-BGT226] (top concentration 1000 nM) it is 2.22.
On to `COc1nc(N)nc2c1ncn2[C@@H]1O[C@H](CO)[C@@H](O)[C@@H]1O` [Nelarabine] (top concentration 10000 nM), for which the “selective drug sensitivity score” value is -5.82.
As for `Cc1cn(-c2cc(NC(=O)c3ccc(C)c(Nc4nccc(-c5cccnc5)n4)c3)cc(C(F)(F)F)c2)cn1` [Nilotinib] (top concentration 10000 nM), the “selective drug sensitivity score” value amounted to 3.3.
The same measure, in the same setting: the figure for `NC(=O)c1cccc2cn(-c3ccc(C4CCCNC4)cc3)nc12` (stereo not given) [Niraparib] (top concentration 10000 nM) is 3.18; for `COc1ccc(C[C@H](NC(=O)[C@H](C)NC(=O)CN2CCOCC2)C(=O)N[C@@H](Cc2ccccc2)C(=O)[C@@]2(C)CO2)cc1` [ONX-0914] (top concentration 10000 nM) it is -9.3.
Regarding `CC(=O)c1cnc2ccc(-c3cc(Cl)c(O)c(Cl)c3)nc2c1N[C@H]1CC[C@H](CN(C)C)CC1` [OTS167] (top concentration 1000 nM), the “selective drug sensitivity score” value came to 1.88.
With `COC(=O)C[C@](O)(CCCC(C)(C)O)C(=O)O[C@@H]1C(OC)=C[C@]23CCCN2CCc2cc4c(cc2[C@H]13)OCO4` [Omacetaxine] (top concentration 10000 nM), the “selective drug sensitivity score” value is 1.32.

A further test relates to KASUMI-10. The test is described as above. As to conditions: 72 h.
In the case of `CCOC(=O)CCNc1cc(N2CCc3ccccc3CC2)nc(-c2ccccn2)n1` [GSK-J4] (top concentration 100000 nM), the “selective drug sensitivity score” value was -11.8.
In the case of `Cc1cc(Nc2cc(CN3CCOCC3)c3nc(C)c(Cc4ccc(Cl)cc4F)n3n2)n[nH]1` [Gandotinib] (top concentration 10000 nM), the “selective drug sensitivity score” value stood at 7.28.
Still for that read-out and setting: the figure for `NC(=O)NO` [Hydroxyurea] (top concentration 1000000 nM) is 1.86.
As to `Cc1ccc(NC(=O)c2ccc(CN3CCN(C)CC3)cc2)cc1Nc1nccc(-c2cccnc2)n1` [Imatinib] (top concentration 10000 nM), the “selective drug sensitivity score” value was -0.44.
`CC(C)NC[C@@H](C(=O)N1CCN(c2ncnc3c2[C@H](C)C[C@H]3O)CC1)c1ccc(Cl)cc1` [Ipatasertib] (top concentration 10000 nM): the “selective drug sensitivity score” value came out at 0.7.
Still for that read-out and setting: for `CCC(C)n1ncn(-c2ccc(N3CCN(c4ccc(OCC5COC(Cn6cncn6)(c6ccc(Cl)cc6Cl)O5)cc4)CC3)cc2)c1=O` (stereo not given) [Itraconazole] (top concentration 5000 nM) the value was -4.32.
Still for that read-out and setting: the figure for `Cc1sc2c(c1C)C(c1ccc(Cl)cc1)=N[C@@H](CC(=O)OC(C)(C)C)c1nnc(C)n1-2` [JQ1] (top concentration 10000 nM) is 7.22; for `CCNC(=O)c1noc(-c2cc(C(C)C)c(O)cc2O)c1-c1ccc(CN2CCOCC2)cc1` [Luminespib] (top concentration 1000 nM) it is 4.4; for `O=C(c1cccc(Cl)c1F)N1CCN(Cc2cccc(Nc3nccs3)n2)CC1` [MK-8745] (top concentration 10000 nM) it is 11.2.
